Test results: BindingDB's records for doi:10.7270/Q2TX3CTT (Broad Institute, 2010)

Molecular target: Glycogen synthase kinase-3 beta (Homo sapiens, UniProt P49841)
Assay: GSK3beta kinase inhibitor potency, dose response, biochemical, luminescence, cell-free homogeneous, retest (AID 434954)

Chain of Glycogen synthase kinase-3 beta (P49841 whole entry): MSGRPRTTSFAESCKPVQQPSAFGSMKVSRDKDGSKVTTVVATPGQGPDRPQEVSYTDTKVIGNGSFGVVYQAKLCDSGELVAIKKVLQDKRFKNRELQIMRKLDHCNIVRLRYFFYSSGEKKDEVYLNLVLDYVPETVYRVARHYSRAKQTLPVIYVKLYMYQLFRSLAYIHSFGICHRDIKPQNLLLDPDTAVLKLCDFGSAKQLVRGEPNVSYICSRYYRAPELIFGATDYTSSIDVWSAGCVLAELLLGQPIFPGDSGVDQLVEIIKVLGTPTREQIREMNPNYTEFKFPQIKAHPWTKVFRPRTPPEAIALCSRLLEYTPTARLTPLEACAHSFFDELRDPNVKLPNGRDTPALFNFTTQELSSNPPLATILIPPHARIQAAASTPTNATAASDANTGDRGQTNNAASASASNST

EC50 [µM] | Compound
18.8 | Cc1ncsc1CCSc1nc2ccccc2c(=O)n1C [3-methyl-2-{[2-(4-methyl-1,3-thiazol-5-yl)ethyl]thio}-4(3H)-quinazolinone]
> 300 | CCOC(=O)c1sc(NC(=O)CCN2C(=O)c3cccc([N+](=O)[O-])c3C2=O)c(C(=O)OCC)c1C [3-methyl-5-[[3-(4-nitro-1,3-dioxo-2-isoindolyl)-1-oxopropyl]amino]thiophene-2,4-dicarboxylic acid diethyl ester]
> 300 | O=C(NCCCN1CCCCC1)c1ccc2c(c1)NC(=O)C(N1CCCCC1)S2 (configuration not stated) [3-oxo-2-piperidin-1-yl-N-(3-piperidin-1-ylpropyl)-4H-1,4-benzothiazine-6-carboxamide]
> 300 | O=C(O)C1C2C=CC(O2)C1C(=O)NCc1ccc(Cl)cc1 (configuration not stated) [3-{[(4-chlorobenzyl)amino]carbonyl}-7-oxabicyclo[2.2.1]hept-5-ene-2-carboxylic acid]
9.12 | CCOC(=O)c1cnc2ccc(C(=O)OC)cc2c1Nc1ccc2c(c1)OCCO2 [4-(2,3-Dihydro-benzo[1,4]dioxin-6-ylamino)-quinoline-3,6-dicarboxylic acid 3-ethyl ester 6-methyl ester]
> 300 | CC1CCCCN1c1ncnc2ccccc12 (configuration not stated) [4-(2-Methyl-piperidin-1-yl)-quinazoline]
> 300 | N=C(NO)c1ccc(Oc2ccccc2Cl)c([N+](=O)[O-])c1 [4-(2-chlorophenoxy)-N'-hydroxy-3-nitrobenzenecarboximidamide]
5.17 | Cn1c(=O)c2[nH]c(CCCC(=O)O)nc2n(Cc2ccccc2)c1=S [4-(3-benzyl-1-methyl-6-oxo-2-sulfanylidene-7H-purin-8-yl)butanoic acid]
> 300 | CCOc1cc(C2C(C(=O)N3CCCCC3)=C(C)N=C3CC(C)(C)CC(=O)C32)ccc1O (configuration not stated) [4-(3-ethoxy-4-hydroxyphenyl)-2,7,7-trimethyl-3-[oxo(1-piperidinyl)methyl]-1,4,6,8-tetrahydroquinolin-5-one]
> 300 | COc1cccc(C2C3=C(CC(C)(C)CC3=O)N=C(C)C2C#N)c1 (configuration not stated) [4-(3-methoxyphenyl)-2,7,7-trimethyl-5-oxo-1,4,5,6,7,8-hexahydro-3-quinolinecarbonitrile]
5.73 | NS(=O)(=O)c1ccc(Nc2nc(-c3ccc(O)cc3O)cs2)cc1 [4-(4-(2,4-dihydroxyphenyl)thiazol-2-ylamino)benzenesulfonamide]
3.93 | Cc1[nH]nc2c1C(c1ccc(F)cc1)C1C(=O)CC(C)(C)CC1=N2 (configuration not stated) [4-(4-fluorophenyl)-3,7,7-trimethyl-1,4,6,7,8,9-hexahydro-5H-pyrazolo[3,4-b]quinolin-5-one]
> 300 | C[O+]=N[CH-]c1ccc(Oc2ccc(C)cc2)c([N+](=O)[O-])c1 [4-(4-methylphenoxy)-3-nitrobenzenecarbaldehyde O-methyloxime]
> 300 | CN1CCN(c2nc(-c3ccccc3)nc(-c3ccccc3)c2C#N)CC1 [4-(4-methylpiperazin-1-yl)-2,6-diphenyl-pyrimidine-5-carbonitrile]
> 300 | Cc1cc2c(Nc3ccc(O)cc3)ncnc2s1 [4-(6-Methyl-thieno[2,3-d]pyrimidin-4-ylamino)-phenol]
> 300 | COc1ccc2nc(C)cc(N3CCOCC3)c2c1 [4-(6-methoxy-2-methyl-4-quinolinyl)morpholine]
> 300 | O=C(NC1CCC(C(=O)O)CC1)OCc1ccccc1 (configuration not stated) [4-(phenylmethoxycarbonylamino)cyclohexane-1-carboxylic acid]
0.231 | COCCCNc1nc(N)c([N+](=O)[O-])c(Nc2ccccc2OC)n1 [4-N-(2-methoxyphenyl)-2-N-(3-methoxypropyl)-5-nitropyrimidine-2,4,6-triamine]
> 300 | Nc1nc(NCCCN2CCOCC2)nc(Nc2ccc(F)cc2)c1[N+](=O)[O-] [4-N-(4-fluorophenyl)-2-N-(3-morpholin-4-ylpropyl)-5-nitropyrimidine-2,4,6-triamine]
4.89 | Nc1nc(Nc2ccccc2)nc(NCc2ccco2)c1[N+](=O)[O-] [4-N-(furan-2-ylmethyl)-5-nitro-2-N-phenylpyrimidine-2,4,6-triamine]
5.45 | C=CCNc1nc(N)c([N+](=O)[O-])c(NC2CCCCC2)n1 [4-N-cyclohexyl-5-nitro-2-N-prop-2-enylpyrimidine-2,4,6-triamine]
> 300 | COC(=O)CCC(=O)Oc1ccc(OC(=O)CCC(=O)OC)cc1 [4-O-[4-(4-methoxy-4-oxobutanoyl)oxyphenyl] 1-O-methyl butanedioate]

Second part, the compound before the results:

Compound | EC50 [µM]
CCOC(=O)CC(=O)CSc1ccc2nnc(-c3ccc(C)cc3)n2n1 [3-keto-4-[[3-(p-tolyl)-[1,2,4]triazolo[4,3-b]pyridazin-6-yl]thio]butyric acid ethyl ester] | 14.3
COc1cccc(C(=O)Nc2nc(-c3ccncc3)cs2)c1 [3-methoxy-N-(4-pyridin-4-yl-1,3-thiazol-2-yl)benzamide] | > 300
COc1cccc(C(=O)NCCCNC(=O)c2cccc(OC)c2)c1 [3-methoxy-N-[3-[[(3-methoxyphenyl)-oxomethyl]amino]propyl]benzamide] | > 300
COc1cccc(C(=O)N/N=C/c2ccc(Oc3ccc([N+](=O)[O-])cn3)c(OC)c2)c1 [3-methoxy-N-[[3-methoxy-4-(5-nitropyridin-2-yl)oxyphenyl]methylideneamino]benzamide] | > 300
Cc1ccnc(SCCn2c(N3CCOCC3)nc3c2c(=O)[nH]c(=O)n3C)n1 [3-methyl-7-[2-(4-methylpyrimidin-2-yl)sulfanylethyl]-8-morpholin-4-ylpurine-2,6-dione] | > 300
O=C(OCCCN1CCCCC1)c1ccc(O)cc1 [3-piperidin-1-ylpropyl 4-hydroxybenzoate] | > 300
Cc1nc(Nc2ccccc2)sc1C [4,5-dimethyl-N-phenyl-1,3-thiazol-2-amine] | > 300
Cc1cccc(N2CCN(C(=O)c3csc4ccccc34)CC2C)c1 (configuration not stated) [4-(1-benzothien-3-ylcarbonyl)-2-methyl-1-(3-methylphenyl)piperazine] | > 300
COc1cc(CN=O)ccc1OCc1ccccc1Cl [4-(2-chlorobenzyl)oxy-3-methoxy-benzaldoxime] | > 300
CC1CCCCN1c1cc(C#N)c(C#N)cc1[N+](=O)[O-] (configuration not stated) [4-(2-methyl-1-piperidinyl)-5-nitrophthalonitrile] | > 300
NC(=O)c1ccc(Oc2ccc(Cl)c3ccccc23)c([N+](=O)[O-])c1 [4-(4-chloronaphthalen-1-yl)oxy-3-nitrobenzamide] | > 300
CN(C)c1nc(-c2ccccc2)nc(-c2ccc(Cl)cc2)c1C#N [4-(4-chlorophenyl)-6-(dimethylamino)-2-phenylpyrimidine-5-carbonitrile] | > 300
O=S(=O)(c1ccc(F)cc1)c1nc(-c2ccco2)oc1Nc1ccccc1 [4-(4-fluorophenyl)sulfonyl-2-(furan-2-yl)-N-phenyl-1,3-oxazol-5-amine] | > 300
COc1cc(C2C3=C(CC(C)(C)CC3=O)N=C(C)C2C#N)ccc1O (configuration not stated) [4-(4-hydroxy-3-methoxyphenyl)-2,7,7-trimethyl-5-oxo-1,4,6,8-tetrahydroquinoline-3-carbonitrile] | > 300
COc1ccc(COC(=O)C2C(C)=NC(=O)NC2c2ccc(O)c(OC)c2)cc1 (configuration not stated) [4-(4-hydroxy-3-methoxyphenyl)-6-methyl-2-oxo-3,4-dihydro-1H-pyrimidine-5-carboxylic acid (4-methoxyphenyl)methyl ester] | > 300
COc1ccc(C2C3=C(CC(C)(C)CC3=O)N=C(C)C2C#N)cc1 (configuration not stated) [4-(4-methoxyphenyl)-2,7,7-trimethyl-5-oxidanylidene-1,4,6,8-tetrahydroquinoline-3-carbonitrile] | > 300
CCSc1nnc(-c2ccncc2)o1 [4-(5-Ethylsulfanyl-[1,3,4]oxadiazol-2-yl)-pyridine] | > 300
O=C(COc1ccccc1[N+](=O)[O-])NN=Cc1ccc(OC(=O)c2ccco2)cc1 [4-((E)-{2-[2-(2-nitrophenoxy)acetyl]hydrazono}methyl)phenyl 2-furoate] | 14.7
O=C1CN(C(=O)c2ccco2)c2ccccc2N1 [4-(Furan-2-carbonyl)-3,4-dihydro-1H-quinoxalin-2-one] | > 300
NS(=O)(=O)c1ccc(N2CCCCCC2)c([N+](=O)[O-])c1 [4-(azepan-1-yl)-3-nitrobenzenesulfonamide] | > 300
CN(C)c1ccc(C(=O)NN2C(=O)c3ccccc3C2=O)cc1 [4-(dimethylamino)-N-(1,3-dioxo-2-isoindolyl)benzamide] | > 300
Cc1ccc(-c2nn(-c3ccccc3)cc2C=Nn2c(-c3cccs3)n[nH]c2=S)cc1 [4-({[3-(4-methylphenyl)-1-phenyl-1H-pyrazol-4-yl]methylene}amino)-5-(2-thienyl)-2,4-dihydro-3H-1,2,4-triazole-3-thione] | > 300
COc1ccc(NC(=O)c2sc(S)nc2N)cc1 [4-Amino-2-thioxo-2,3-dihydro-thiazole-5-carboxylic acid (4-methoxy-phenyl)-amide] | > 300
N#Cc1c2n(c3c(N)ncnc13)CCCCC2 [4-Amino-6,7,8,9-tetrahydro-5H-1,3,4b-triaza-benzo[a]azulene-10-carbonitrile] | > 300
CN(C)Cc1c(O)ccc2c3c(c(=O)oc12)CCCCC3 [4-Dimethylaminomethyl-3-hydroxy-8,9,10,11-tetrahydro-7H-cyclohepta[c]chromen-6-one] | 78.8
Nc1ncnc(NC2CCS(=O)(=O)C2)c1[N+](=O)[O-] (configuration not stated) [4-N-(1,1-dioxothiolan-3-yl)-5-nitropyrimidine-4,6-diamine] | > 300
COc1ccc(OC)c(Nc2nc(NCCC(C)C)nc(N)c2[N+](=O)[O-])c1 [4-N-(2,5-dimethoxyphenyl)-2-N-(3-methylbutyl)-5-nitropyrimidine-2,4,6-triamine] | > 300
C=CCNc1nc(N)c([N+](=O)[O-])c(Nc2ccccc2OC)n1 [4-N-(2-methoxyphenyl)-5-nitro-2-N-prop-2-enylpyrimidine-2,4,6-triamine] | > 300
CNc1nc(N)c([N+](=O)[O-])c(NC2CCCCC2)n1 [4-N-cyclohexyl-2-N-methyl-5-nitropyrimidine-2,4,6-triamine] | 7.52
Cc1n[nH]c(O)c1N=Nc1ccc(S(N)(=O)=O)cc1 [4-[2-(3-methyl-5-oxopyrazol-4-yl)hydrazinyl]benzenesulfonamide] | 36.6
